The results in this text go back to US11932657B2, “Heterocyclic compound” (priority 2018, dated 2024).

SMILES strings stand for the structures.

In assay [1] the target is T1, aryl hydrocarbon receptor (AhR) (Homo sapiens, UniProt P35869).
T1 construct: DRE-Luc HepG2 cells subcultured in a 225 cm^2 flask; endogenous in cells; host or cells: HepG2 (ATCC), stably transfected with the reporter hCYP1A1/pGL4.27 (DRE-Luc HepG2)
T1 sequence (P35869 11-848): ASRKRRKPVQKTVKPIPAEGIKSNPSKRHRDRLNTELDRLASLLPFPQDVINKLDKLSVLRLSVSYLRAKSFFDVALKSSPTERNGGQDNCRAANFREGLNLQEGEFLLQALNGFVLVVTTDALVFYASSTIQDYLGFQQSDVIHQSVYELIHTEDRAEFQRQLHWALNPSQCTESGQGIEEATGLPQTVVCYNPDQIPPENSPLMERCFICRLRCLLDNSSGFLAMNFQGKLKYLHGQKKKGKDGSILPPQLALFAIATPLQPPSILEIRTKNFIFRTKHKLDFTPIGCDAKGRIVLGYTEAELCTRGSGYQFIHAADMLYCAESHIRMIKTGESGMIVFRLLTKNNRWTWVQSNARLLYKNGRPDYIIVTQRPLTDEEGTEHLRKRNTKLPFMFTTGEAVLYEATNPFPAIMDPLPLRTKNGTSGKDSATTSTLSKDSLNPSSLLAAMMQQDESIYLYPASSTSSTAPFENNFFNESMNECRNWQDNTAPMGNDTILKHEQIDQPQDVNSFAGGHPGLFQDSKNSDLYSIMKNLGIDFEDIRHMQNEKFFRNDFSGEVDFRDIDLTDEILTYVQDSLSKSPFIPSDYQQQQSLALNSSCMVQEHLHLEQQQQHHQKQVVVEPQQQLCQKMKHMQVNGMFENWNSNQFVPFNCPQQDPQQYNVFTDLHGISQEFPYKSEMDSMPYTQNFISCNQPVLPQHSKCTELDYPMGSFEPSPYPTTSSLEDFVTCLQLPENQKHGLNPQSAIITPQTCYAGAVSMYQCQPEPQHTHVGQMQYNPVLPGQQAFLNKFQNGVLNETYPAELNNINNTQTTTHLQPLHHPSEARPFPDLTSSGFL
As to the kind of experiment: AhR reporter gene assay (aryl hydrocarbon receptor antagonist activity, DRE-Luc HepG2 cells, TCDD-stimulated luciferase). Type of assay: cell-based. A digest of the protocol:
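HepG2 cells stably carrying a human CYP1A1 promoter/DRE-driven luciferase reporter were pretreated with compound for 24 h at 37°C. TCDD (5×10^−10 M in the added solution) was then added for a further 24 h. Firefly luciferase luminescence was read as the measure of antagonism.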
(In general: A reporter such as luciferase makes a cellular process visible.)

The subject of assay [2] is immortalized megakaryocyte line (SeV2-MKCL). As to the kind of experiment: Platelet production: static culturing of immortalized megakaryocyte line. The format is cell-based. The following applies: compound final concentration 0.1 μM, static culturing 6 to 7 days, control (DMSO) set to 1; platelets = CD41, CD42b and CD42a-positive cells. A digest of the protocol:
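SeV2-MKCL cells, washed free of doxycycline to stop forced expression, seeded at 1×10^5 cells/mL in IMDM-based medium with compound (final 0.1 μM) or DMSO, static culture 6–7 days, 37° C., 5% CO2. CD41/CD42a/CD42b-positive platelets counted by bead-corrected flow cytometry; platelets per megakaryocyte expressed as fold over DMSO control.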

For orientation: IC50 means the concentration at which inhibition is half-maximal. Read a high IC50 as a need for much substance. For the compound `CC1(C)COc2nc3c(NCCc4ccc(O)c(-c5cccc(C#N)c5)c4)nc(-c4cncc(F)c4)nc3n21` [Example 17, 3-[5-[2-[[2-(5-fluoropyridin-3-yl)-8,8-dimethyl-7H-purino[8,9-b][1,3]oxazol-4-yl]amino]ethyl]-2-hydroxyphenyl]benzonitrile], the IC50 in assay [1] stood at 2.3 nM. Besides, the “Static (vs veh): fold increase of platelet production efficiency (PLT/MK)” value (from here on “Static (vs veh): fold increase”) in assay [2] came to 7.8.
The corresponding values for `CC1(C)COc2nc3c(NCCc4ccc(O)c(-c5cccc(C(F)(F)F)c5)c4)nc(-c4cncc(F)c4)nc3n21` [Example 16] are 3.9 nM and 10.
In assay [1], `C[C@@H]1CSc2nc3c(NCCc4ccc(O)c(-c5ccccc5)c4)nc(-c4cncc(C#N)c4)nc3n21` [Example 50] yielded an IC50 of 0.7 nM. For the same compound, the “Static (vs veh): fold increase” value in assay [2] was 6.6.
The corresponding values for `CC1(C)CSc2nc3c(NCCc4ccc(O)c(-c5ccccc5)c4)nc(-c4cncc(F)c4)nc3n21` [Example 47] are 0.38 nM and 3.7.
For `C[C@@H]1CSc2nc3c(NCCc4ccc(O)c(-c5ccccc5F)c4)nc(-c4cncc(C#N)c4)nc3n21` [Example 39] the same measures were 1.2 nM and 4.3.
The compound `CC1(C)CSc2nc3c(NCCc4ccc(O)c(-c5cccc(F)c5)c4)nc(-c4cncc(C#N)c4)nc3n21` [Example 37] registered a half-maximal inhibitory concentration (IC50) in assay [1] of 0.53 nM. The “Static (vs veh): fold increase” value in assay [2] turned out to be 2.1.
For `CC1(C)COc2nc3c(NCCc4ccc(O)c(-c5ccc(C#N)cc5)c4)nc(-c4cncc(F)c4)nc3n21` [Example 18] the same measures were 6.9 nM and 7.3.
The corresponding values for `Fc1cncc(-c2nc(NCCc3c[nH]c4ccccc34)c3nc4n(c3n2)CCCS4)c1` [Example 109] are 11 nM and 7.8.
For `CC1(C)COc2nc3c(NCCc4ccc(O)c(-c5cc(C#N)ccc5F)c4)nc(-c4cncc(F)c4)nc3n21` [Example 54] the same measures were 4.1 nM and 5.9.
Turning to `Cc1cccc(-c2cc(CCNc3nc(-c4cncc(F)c4)nc4c3nc3n4C(C)(C)CO3)ccc2O)c1` [Example 14], in assay [1], inhibition was half-maximal at 11 nM (IC50). The “Static (vs veh): fold increase” value in assay [2] is listed as 7.9.
`CC1(C)CSc2nc3c(NCCc4ccc(O)c(-c5cccc(C#N)c5)c4)nc(-c4cncc(C#N)c4)nc3n21` [Example 60] displayed an IC50 in assay [1] of 0.43 nM. Moreover, the “Static (vs veh): fold increase” value in assay [2] is on record as 3.4.
The corresponding values for `C[C@@H]1COc2nc3c(NCCc4ccc(O)c(-c5cncc(C#N)c5)c4)nc(-c4cncc(F)c4)nc3n21` [Example 77] are 9.2 nM and 3.5.
On to `Cc1cncc(-c2nc(NCCc3ccc(O)c(-c4cccc(F)c4)c3)c3nc4n(c3n2)C(C)(C)CS4)c1` [Example 27], for which half-maximal inhibition in assay [1] (IC50) was put at 0.35 nM. For the same compound, the “Static (vs veh): fold increase” value in assay [2] came to 6.0.
For the compound `Cc1cncc(-c2cc(CCNc3nc(-c4cncc(F)c4)nc4c3nc3n4C(C)(C)CO3)ccc2O)c1` [Example 72], in assay [1], the concentration for half-maximal inhibition (IC50) stood at 9.8 nM. For the same compound, in assay [2], the “Static (vs veh): fold increase” value is 6.8.
In assay [1], `CC1(C)COc2nc3c(NCCc4ccc(O)c(-c5cc(C#N)ccc5F)c4)nc(-c4cncc(C#N)c4)nc3n21` [Example 65] registered an IC50 of 3.9 nM. For the same compound, the “Static (vs veh): fold increase” value in assay [2] stood at 3.3.
The corresponding values for `CC1(C)COc2nc3c(NCCc4c[nH]c5ccccc45)nc(-c4ccc5nccn5c4)nc3n21` [Example 110] are 40 nM and 6.1.
For `CC1(C)CSc2nc3c(NCCc4ccc(O)c(-c5cccc(F)c5)c4)nc(-c4cncc(F)c4)nc3n21` [Example 9] the same measures were 0.32 nM and 4.9.
In assay [1], `CC1(C)COc2nc3c(NCCc4ccc(O)c(-c5cccc(Cl)c5)c4)nc(-c4cncc(F)c4)nc3n21` [Example 6] came in with an IC50 of 10 nM. Further, in assay [2], the “Static (vs veh): fold increase” value worked out at 3.7.
The compound `Cc1cncc(-c2nc(NCCc3ccc(O)c(-c4ccccc4F)c3)c3nc4n(c3n2)C(C)(C)CS4)c1` [Example 26] returned an IC50 in assay [1] of 1 nM. In addition, in assay [2], the “Static (vs veh): fold increase” value is 5.0.
For `C[C@@H]1CSc2nc3c(NCCc4ccc(O)c(-c5ccccc5F)c4)nc(-c4cncc(F)c4)nc3n21` [Example 28] the same measures were 0.4 nM and 9.7.
In assay [1], `CC1(C)COc2nc3c(NCCc4c[nH]c5ccccc45)nc(-c4cncc(C#N)c4)nc3n21` [Example 92] gave an IC50 of 33 nM. In addition, in assay [2], the “Static (vs veh): fold increase” value is 2.6.
In the case of `CN(C)C(=O)Cc1cccc(-c2cc(CCNc3nc(-c4cncc(F)c4)nc4c3nc3n4C(C)(C)CO3)ccc2O)c1` [Example 79], the half-inhibitory concentration (IC50) in assay [1] was 6.6 nM. For the same compound, in assay [2], the “Static (vs veh): fold increase” value is on record as 2.9.
For the compound `CC1(C)COc2nc3c(NCCc4ccc(O)c(-c5csc6ccccc56)c4)nc(-c4cncc(F)c4)nc3n21` [Example 35], the IC50 in assay [1] was 12 nM. The “Static (vs veh): fold increase” value in assay [2] was 6.0.
In assay [1], `CC1(C)COc2nc3c(NCCc4ccc(O)c(-c5ccc(F)cc5F)c4)nc(-c4cncc(F)c4)nc3n21` [Example 42] gave an IC50 of 6.1 nM. Also, in assay [2], the “Static (vs veh): fold increase” value worked out at 4.8.
As for `CC1(C)COc2nc3c(NCCc4c[nH]c5ccccc45)nc(-c4cccnc4)nc3n21` [Example 94], in assay [1], it took 39 nM to reach half-maximal inhibition (IC50). Besides, in assay [2], the “Static (vs veh): fold increase” value is recorded as 2.6.
As for `CC1(C)COc2nc3c(NCCc4ccc(O)c(-c5cccc(C#N)c5)c4)nc(-c4cncc(C#N)c4)nc3n21` [Example 59], the IC50 in assay [1] turned out to be 2.5 nM. Besides, the “Static (vs veh): fold increase” value in assay [2] is listed as 5.7.
For `CC1(C)COc2nc3c(NCCc4ccc(O)c(-c5cc(F)ccc5F)c4)nc(-c4cncc(F)c4)nc3n21` [Example 10] the same measures were 11 nM and 5.5.
The corresponding values for `CC1(C)COc2nc3c(NCCc4ccc(O)c(-c5ccc(Cl)cc5)c4)nc(-c4cncc(F)c4)nc3n21` [Example 7] are 9.1 nM and 7.3.
The corresponding values for `CC1(C)COc2nc3c(NCCc4ccc(O)c(-c5cc(F)cc(C#N)c5)c4)nc(-c4cncc(C#N)c4)nc3n21` [Example 69] are 13 nM and 4.7.
In assay [1], `COc1ccccc1-c1cc(CCNc2nc(-c3cncc(F)c3)nc3c2nc2n3C(C)(C)CO2)ccc1O` [Example 41] showed a concentration for half-maximal inhibition (IC50) of 10 nM. In addition, the “Static (vs veh): fold increase” value in assay [2] is 7.0.
The corresponding values for `CC1(C)COc2nc3c(NCCc4ccc(O)c(-c5cccc(C#N)c5)c4)nc(-c4ccnc(F)c4)nc3n21` [Example 64] are 5.7 nM and 3.7.
The corresponding values for `CC1(C)COc2nc3c(NCCc4ccc(O)c(-c5cncc(F)c5)c4)nc(-c4cncc(F)c4)nc3n21` [Example 43, 2-(5-fluoropyridin-3-yl)-4-[2-[[2-(5-fluoropyridin-3-yl)-8,8-dimethyl-7H-purino[8,9-b][1,3]oxazol-4-yl]amino]ethyl]phenol] are 26 nM and 7.1.
`CC1(C)C[S+]([O-])c2nc3c(NCCc4ccc(O)c(-c5ccccc5F)c4)nc(-c4cncc(F)c4)nc3n21` (centres unmarked) [Example 20] registered an IC50 in assay [1] of 0.058 nM. In addition, the “Static (vs veh): fold increase” value in assay [2] was determined as 6.5.
As to `CC1(C)COc2nc3c(NCCc4ccc(O)c(-c5ccccc5F)c4)nc(-c4cncc(F)c4)nc3n21` [Example 2, 2-(2-fluorophenyl)-4-[2-[[2-(5-fluoropyridin-3-yl)-8,8-dimethyl-7H-purino[8,9-b][1,3]oxazol-4-yl]amino]ethyl]phenol], in assay [1], the IC50 was 9.5 nM. In assay [2], the “Static (vs veh): fold increase” value is reported as 5.6.
